In patent US20100261765A1, “MINERALOCORTICOID RECEPTOR MODULATORS” (priority 2007, published 2010):
Read-outs that look alike come from different tables or passages of the source.

Legend:
Cav1.2 = biological target: T1, Cav1.2 (Homo sapiens, UniProt Q13936); test: Calcium channel block, FLIPR TETRA fluorescence assay in HEK293 cells expressing L-type calcium channels; assay type: cell-based; details: pH 7.2, 25 mM potassium; for inhibition at 30 min, 0.3 μM: 0.3 μM compound, read-out: FLIPRIETRA Cav1.2 % Inhibition 0.3 μM; for inhibition at 30 min, 1 μM: 1 μm compound, read-out: FLIPRIETRA Cav1.2 % Inhibition 1 μm; for inhibition at 30 min, 3 μM: 3 μm compound, read-out: FLIPRIETRA Cav1.2 % Inhibition 3 μm; for inhibition at 30 min, 10 μM: 10 μm compound, read-out: FLIPRIETRA Cav1.2 % Inhibition 10 μm; for inhibition at 30 min, 30 μM: 30 μm compound, read-out: FLIPRIETRA Cav1.2 % Inhibition 30 μm
T1 construct: expressed in transfected cells; host or cells: HEK293 cell line (Xia, et al., 2004) also expressing Kir2.3
Procedure: Measurement of Calcium Channel Block
A high-throughput fluorescence assay for state-dependent block of L-type channels was established as a counterscreen for blockers of N-type calcium channels. […] This allows the cell membrane potential to be preset during compound incubation, which can be used to assay state-dependent channel block. Running the assay in the presence of high potassium (25 mM) sets the membrane potential to a value (−35 mV) at which approximately half of the calcium channels are inactivated and some are open. This condition favors block by many L-type calcium channel blockers that lower blood pressure, including dihydropyridines, phenylalkylamines and benzothiazepines.
Initially, the compounds were incubated in 0.005 μM calcium and 25 mM potassium for 30 minutes. Calcium influx was triggered by buffer addition that raises the calcium concentration to 2 mM while maintaining the potassium concentration at 25 mM. Changes in intracellular calcium were then monitored using a calcium-sensitive fluorescent dye (fluo-4) and a FLIPR^TETRA plate reader.
The following experimental protocol was used:
1. Cells were seeded in a Poly-D-Lysine Coated 384-well plate (50 μl/well) and incubated overnight at 37° C. under 10% CO2;
4. Cells were then incubated in the dark at 25° C. for 30 minutes;
5. […] 25 mM KCl, 0.005 mM CaCl2, 1.7 mM MgCl2, 10 HEPES, pH=7.2;
6. 0.025 ml of 25 mM K PPB was then added, with or without the presence of a test compound;
7. Cells incubated in the dark at 25° C. for 30 min
8. Cell plates are then read on the FLIPR^TETRA instrument, Excitation=480 nm, Emission=535 nm;

[1] = biological target: T2, recombinant rhesus mineralocorticoid receptor (Macaca mulatta, UniProt A0A5F8ATS5); test: Mineralocorticoid receptor binding affinity, [3H]-aldosterone filter binding assay
T2 construct: made in house; host or cells: insect cells infected with recombinant baculovirus; clarified lysate used
T2 sequence (A0A5F8ATS5 1-984): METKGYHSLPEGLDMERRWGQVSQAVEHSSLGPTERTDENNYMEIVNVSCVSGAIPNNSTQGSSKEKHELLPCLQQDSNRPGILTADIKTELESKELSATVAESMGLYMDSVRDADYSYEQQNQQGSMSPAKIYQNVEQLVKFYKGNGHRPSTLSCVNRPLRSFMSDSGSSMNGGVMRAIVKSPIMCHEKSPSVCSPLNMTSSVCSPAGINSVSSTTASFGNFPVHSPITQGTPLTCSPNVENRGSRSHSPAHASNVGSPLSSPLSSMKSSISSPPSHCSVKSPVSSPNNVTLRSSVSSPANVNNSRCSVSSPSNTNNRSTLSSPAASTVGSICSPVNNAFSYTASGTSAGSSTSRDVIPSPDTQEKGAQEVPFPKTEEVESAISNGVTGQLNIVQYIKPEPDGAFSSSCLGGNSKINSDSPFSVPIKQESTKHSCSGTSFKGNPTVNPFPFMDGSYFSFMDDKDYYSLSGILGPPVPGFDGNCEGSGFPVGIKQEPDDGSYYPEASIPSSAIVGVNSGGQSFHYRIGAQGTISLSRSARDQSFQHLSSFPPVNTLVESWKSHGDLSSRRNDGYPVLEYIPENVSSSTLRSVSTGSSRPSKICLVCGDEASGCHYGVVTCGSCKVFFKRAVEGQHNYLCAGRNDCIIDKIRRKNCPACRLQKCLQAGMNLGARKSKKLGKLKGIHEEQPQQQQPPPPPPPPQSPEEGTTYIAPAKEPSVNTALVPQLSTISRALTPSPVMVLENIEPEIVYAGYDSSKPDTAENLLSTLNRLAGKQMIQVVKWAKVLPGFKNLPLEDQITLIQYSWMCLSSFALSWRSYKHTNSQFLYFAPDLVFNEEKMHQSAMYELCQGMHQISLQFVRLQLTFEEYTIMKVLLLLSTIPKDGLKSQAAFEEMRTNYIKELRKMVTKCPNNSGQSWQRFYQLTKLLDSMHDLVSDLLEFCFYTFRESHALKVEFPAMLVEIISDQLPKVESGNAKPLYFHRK
Procedure: Measurement of Mineralocorticoid Receptor Binding Affinity
The binding affinity of compounds for the mineralocorticoid receptor was determined by measuring their ability to prevent binding of radiolabeled aldosterone to recombinant rhesus mineralocorticoid receptor in a traditional filter binding assay protocol.
Rhesus mineralocorticoid receptor cDNA was cloned from a cDNA library using and used to prepare a recombinant baculovirus encoding the rhesus mineralocorticoid receptor coding sequence by standard molecular biological and cell biological methods. […] Cells were collected and lysed. The lysates were clarified by centrifugation and stored at −80 C until use in the radioligand binding assay.
[^3H]-Aldosterone (1 mCi/ml, 70-100 Ci/mmol) was purchased from Perkin Elmer (NET419). Test compounds were dissolved in DMSO and diluted in DMSO to 50 times the desired final concentrations for 3-fold serial dilution dose response curves. […] The insect cell lysate containing rhesus mineralocorticoid receptor was thawed and diluted to 0.7 mg protein/mL. Assay were started by combining 20 μL of test compound solution, 920 μL of diluted insect cell lysate, and 60 μL of [^3H]-aldosterone working solution in 2-mL 96-well polypropylene square well plates (USA Scientific) at 20° C. The mixture was incubated for 3 hr with continuous agitation on a platform shaker. […] The filter plate was washed 3 times with 0.5 mL of 50 mM Tris-HCl, pH 7.4 and then dried overnight at 37° C. in a vacuum oven. […] Non-specific radioligand binding was determined by adding non-radiolabeled aldosterone (0.5 mM in DMSO) to the assay mixture to a final concentration of 10 μM in place of test compound. IC50 and Ki values were determined using a four parameter logistic fit using a customized assay data analyzer software package.

[2] = test system: patients suffering from advanced CHF; details: in combination with standard CHF therapy; cited from earlier work
[3] = average of Rep#1 and Rep#2, read-out: MRBIND Ki (nM) Average
[4] = replicate 1, read-out: MRBIND Ki (nM) Rep#1
[5] = replicate 2, read-out: MRBIND Ki (nM) Rep#2

T1 sequence (Q13936 whole entry): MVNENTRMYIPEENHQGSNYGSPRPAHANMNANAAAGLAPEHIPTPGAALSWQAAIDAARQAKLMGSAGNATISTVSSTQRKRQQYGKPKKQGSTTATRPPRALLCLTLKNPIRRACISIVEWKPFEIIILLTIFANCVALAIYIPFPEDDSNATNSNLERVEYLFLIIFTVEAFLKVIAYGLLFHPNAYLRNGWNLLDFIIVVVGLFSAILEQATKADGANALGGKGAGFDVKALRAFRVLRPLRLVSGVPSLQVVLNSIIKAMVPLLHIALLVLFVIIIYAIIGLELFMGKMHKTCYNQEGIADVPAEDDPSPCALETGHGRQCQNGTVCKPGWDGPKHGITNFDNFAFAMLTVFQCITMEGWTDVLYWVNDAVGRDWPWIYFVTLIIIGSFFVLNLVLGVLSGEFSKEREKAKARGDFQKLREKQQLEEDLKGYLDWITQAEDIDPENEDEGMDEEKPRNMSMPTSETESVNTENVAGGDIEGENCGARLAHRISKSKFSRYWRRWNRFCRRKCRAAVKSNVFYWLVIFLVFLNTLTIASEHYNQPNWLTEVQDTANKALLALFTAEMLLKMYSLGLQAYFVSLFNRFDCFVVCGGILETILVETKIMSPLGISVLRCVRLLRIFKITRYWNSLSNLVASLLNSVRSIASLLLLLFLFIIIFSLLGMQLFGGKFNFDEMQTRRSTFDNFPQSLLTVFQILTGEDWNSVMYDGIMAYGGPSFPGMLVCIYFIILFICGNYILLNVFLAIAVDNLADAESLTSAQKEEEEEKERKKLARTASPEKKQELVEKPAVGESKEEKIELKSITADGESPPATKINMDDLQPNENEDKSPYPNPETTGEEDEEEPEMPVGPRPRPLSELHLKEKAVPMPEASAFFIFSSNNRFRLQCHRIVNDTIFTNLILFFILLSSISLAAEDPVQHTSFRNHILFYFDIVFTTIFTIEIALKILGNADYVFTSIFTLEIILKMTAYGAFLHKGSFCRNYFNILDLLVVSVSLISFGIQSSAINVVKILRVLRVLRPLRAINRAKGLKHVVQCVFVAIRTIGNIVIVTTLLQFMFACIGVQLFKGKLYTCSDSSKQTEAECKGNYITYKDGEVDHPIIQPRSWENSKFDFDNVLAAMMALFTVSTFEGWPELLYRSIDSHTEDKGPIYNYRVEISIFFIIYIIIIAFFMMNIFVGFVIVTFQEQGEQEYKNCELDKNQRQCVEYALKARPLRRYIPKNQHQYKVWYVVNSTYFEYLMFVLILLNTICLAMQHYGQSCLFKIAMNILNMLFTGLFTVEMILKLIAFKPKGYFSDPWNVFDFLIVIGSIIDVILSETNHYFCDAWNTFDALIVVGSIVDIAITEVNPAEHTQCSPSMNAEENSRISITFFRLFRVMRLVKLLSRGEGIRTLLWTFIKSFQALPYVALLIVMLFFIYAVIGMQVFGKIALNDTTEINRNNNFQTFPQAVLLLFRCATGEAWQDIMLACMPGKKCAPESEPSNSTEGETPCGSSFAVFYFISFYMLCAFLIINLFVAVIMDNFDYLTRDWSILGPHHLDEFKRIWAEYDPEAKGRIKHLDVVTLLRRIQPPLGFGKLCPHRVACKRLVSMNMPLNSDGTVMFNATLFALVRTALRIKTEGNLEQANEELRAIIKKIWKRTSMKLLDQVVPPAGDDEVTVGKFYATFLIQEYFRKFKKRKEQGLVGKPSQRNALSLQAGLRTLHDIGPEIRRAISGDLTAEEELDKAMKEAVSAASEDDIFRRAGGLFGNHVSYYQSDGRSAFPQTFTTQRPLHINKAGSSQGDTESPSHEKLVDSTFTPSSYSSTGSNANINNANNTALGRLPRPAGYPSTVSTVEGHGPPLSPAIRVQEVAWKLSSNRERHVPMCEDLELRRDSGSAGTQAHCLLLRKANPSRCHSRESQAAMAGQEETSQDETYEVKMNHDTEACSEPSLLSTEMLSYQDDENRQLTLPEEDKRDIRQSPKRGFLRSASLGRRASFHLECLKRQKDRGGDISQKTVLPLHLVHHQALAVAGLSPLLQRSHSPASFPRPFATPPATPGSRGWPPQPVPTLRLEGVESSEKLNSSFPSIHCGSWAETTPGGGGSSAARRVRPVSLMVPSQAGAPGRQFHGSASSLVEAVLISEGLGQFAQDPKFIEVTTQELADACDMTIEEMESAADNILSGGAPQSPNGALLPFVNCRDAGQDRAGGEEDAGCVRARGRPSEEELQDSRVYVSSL
T1 sequence (P54289 25-946 partner limits assumed): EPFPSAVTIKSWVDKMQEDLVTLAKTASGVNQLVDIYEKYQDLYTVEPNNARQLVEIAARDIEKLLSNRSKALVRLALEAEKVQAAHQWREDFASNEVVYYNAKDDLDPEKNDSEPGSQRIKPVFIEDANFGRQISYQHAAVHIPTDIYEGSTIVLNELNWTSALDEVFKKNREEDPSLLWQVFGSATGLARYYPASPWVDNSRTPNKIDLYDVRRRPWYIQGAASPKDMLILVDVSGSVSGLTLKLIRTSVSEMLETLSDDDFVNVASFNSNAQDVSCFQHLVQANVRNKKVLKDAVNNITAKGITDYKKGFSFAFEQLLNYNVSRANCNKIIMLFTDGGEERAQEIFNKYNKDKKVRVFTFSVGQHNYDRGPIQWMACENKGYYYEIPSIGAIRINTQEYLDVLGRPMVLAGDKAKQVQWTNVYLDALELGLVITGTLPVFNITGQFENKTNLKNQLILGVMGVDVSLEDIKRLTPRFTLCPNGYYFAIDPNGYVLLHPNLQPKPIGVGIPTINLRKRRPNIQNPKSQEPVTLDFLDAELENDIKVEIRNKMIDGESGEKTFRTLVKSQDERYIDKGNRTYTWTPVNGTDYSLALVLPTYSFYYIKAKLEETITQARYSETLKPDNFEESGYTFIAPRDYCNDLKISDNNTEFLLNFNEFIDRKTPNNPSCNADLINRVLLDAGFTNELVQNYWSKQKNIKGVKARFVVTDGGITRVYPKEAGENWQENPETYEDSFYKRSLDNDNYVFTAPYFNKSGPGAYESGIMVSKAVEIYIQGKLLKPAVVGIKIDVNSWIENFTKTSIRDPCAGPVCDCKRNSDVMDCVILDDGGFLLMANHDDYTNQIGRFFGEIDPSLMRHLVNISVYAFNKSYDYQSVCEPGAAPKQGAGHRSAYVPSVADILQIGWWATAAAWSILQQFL
T1 sequence (P54289 947-1103 partner limits assumed): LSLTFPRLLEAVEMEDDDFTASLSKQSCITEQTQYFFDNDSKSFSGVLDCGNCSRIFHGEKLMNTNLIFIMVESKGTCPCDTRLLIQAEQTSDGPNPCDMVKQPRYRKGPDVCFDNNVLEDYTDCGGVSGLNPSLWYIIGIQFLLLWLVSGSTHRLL
T1 sequence (Q08289 whole entry partner): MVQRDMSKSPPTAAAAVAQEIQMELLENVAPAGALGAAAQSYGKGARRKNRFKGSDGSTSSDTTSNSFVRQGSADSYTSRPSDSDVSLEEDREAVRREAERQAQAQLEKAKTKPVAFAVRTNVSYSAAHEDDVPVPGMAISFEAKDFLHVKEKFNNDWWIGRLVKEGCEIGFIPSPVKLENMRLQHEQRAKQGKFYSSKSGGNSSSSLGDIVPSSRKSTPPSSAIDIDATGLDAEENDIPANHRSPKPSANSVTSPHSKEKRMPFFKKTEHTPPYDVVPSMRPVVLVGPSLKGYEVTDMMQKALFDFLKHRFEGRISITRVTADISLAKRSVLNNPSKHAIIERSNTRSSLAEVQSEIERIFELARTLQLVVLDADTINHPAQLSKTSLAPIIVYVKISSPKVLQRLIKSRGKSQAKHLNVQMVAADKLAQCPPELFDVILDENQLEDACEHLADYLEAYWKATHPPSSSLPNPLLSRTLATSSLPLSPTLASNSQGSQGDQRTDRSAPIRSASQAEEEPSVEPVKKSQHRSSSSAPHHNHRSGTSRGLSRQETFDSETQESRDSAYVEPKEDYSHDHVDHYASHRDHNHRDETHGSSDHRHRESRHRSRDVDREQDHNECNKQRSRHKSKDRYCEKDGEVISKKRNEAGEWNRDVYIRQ

Ki [1, 3] [nM] | Ki [1, 4] [nM] | Ki [1, 5] [nM] | Compound | inhibition at 30 min, 0.3 μM (Cav1.2) [%] | inhibition at 30 min, 1 μM (Cav1.2) [%] | inhibition at 30 min, 3 μM (Cav1.2) [%] | inhibition at 30 min, 10 μM (Cav1.2) [%] | inhibition at 30 min, 30 μM (Cav1.2) [%] | reduction of cardiac related mortality [2] [%] | reduction of frequency of hospitalization [2] [%]
462 | 472 | 453 | C=CCOC(=O)C1=C(C)NC(C)=C(C(=O)OCC=C)C1c1cccc([N+](=O)[O-])c1 [diallyl 2,6-dimethyl-4-(3-nitrophenyl)-1,4-dihydropyridine-3,5-dicarboxylate] | 81 | 83 | 82 | 81 |  |  | 
61 | 69 | 53 | COC(=O)C1=C(C)NC(C)=C(C(=O)OC)C1c1cccc2ccccc12 [Dimethyl 2,6-dimethyl-4-(1-naphthyl)-1,4-dihydropyridine-3,5-dicarboxylate] | 80 | 88 | 94 | 100 | 104 |  | 
375 | 382 | 368 | COC(=O)C1=C(C)NC(C)=C(C(=O)OC)C1c1cccc(Cl)c1Cl [dimethyl 4-(2,3-dichlorophenyl)-2,6-dimethyl-1,4-dihydropyridine-3,5-dicarboxylate] | 73 | 75 | 77 | 78 | 84 |  | 
37.3 | 23.6 | 51 | CCCC1=C(C(=O)OCC)C(c2ccccc2Cl)C(C#N)=C(SC)N1 (centres unmarked) [ethyl 4-(2-chlorophenyl)-5-cyano-6-(methylthio)-2-propyl-1,4-dihydropyridine-3-carboxylate] | 53 | 73 | 74 | 80 |  |  | 
489 | 570 | 408 | C=Cc1ccccc1C1C(C(=O)OC)=C(C)NC(C)=C1C(=O)OC [dimethyl 2,6-dimethyl-4-(2-vinylphenyl)-1,4-dihydropyridine-3,5-dicarboxylate] | 74 | 74 | 78 | 87 |  |  | 
193 | 250 | 137 | COc1ccccc1NC(=O)C1=C(C)NC(SC)=C(C#N)C1c1ccccc1Cl (centres unmarked) [4-(2-chlorophenyl)-5-cyano-N-(2-methoxyphenyl)-2-methyl-6-(methylthio)-1,4-dihydropyridine-3-carboxamide] | -3 | 14 | 35 | 74 |  |  | 
53 | 90 | 16 | CCSC1=C(C#N)C(c2ccccc2Cl)C(C(=O)Nc2ccccc2OC)=C(C)N1 (centres unmarked) [4-(2-chlorophenyl)-5-cyano-6-(ethylthio)-N-(2-methoxyphenyl)-2-methyl-1,4-dihydropyridine-3-carboxamide] | 41 | 83 | 92 | 98 | 104 |  | 
1390 | 1140 | 1650 | CCOc1ccccc1C1C(C#N)=C(SC)NC(C)=C1C(=O)Nc1ccccc1 (centres unmarked) [5-cyano-4-(2-ethoxyphenyl)-2-methyl-6-(methylthio)-N-phenyl-1,4-dihydropyridine-3-carboxamide] | 4 | 26 | 55 | 82 |  |  | 
14.9 | 11.6 | 18.2 | CCCSC1=C(C#N)C(c2ccccc2Cl)C(C(=O)Nc2ccccc2OC)=C(C)N1 (centres unmarked) [4-(2-chlorophenyl)-5-cyano-N-(2-methoxyphenyl)-2-methyl-6-(propylthio)-1,4-dihydropyridine-3-carboxamide] | 31 | 69 | 90 | 96 | 102 |  | 
203 | 83 | 324 | COC(=O)C1=C(C)NC(C)=C(C(=O)OC)C1c1ccc(Cl)c(Cl)c1 [dimethyl 4-(3,4-dichlorophenyl)-2,6-dimethyl-1,4-dihydropyridine-3,5-dicarboxylate] | 34 | 59 | 77 | 87 | 89 |  | 
114 | 77 | 152 | CCOC(=O)C1=C(C)NC(C)=C(C(=O)OC(C)C)C1c1ccc([N+](=O)[O-])cc1 (centres unmarked) [ethyl isopropyl 2,6-dimethyl-4-(4-nitrophenyl)-1,4-dihydropyridine-3,5-dicarboxylate] | 28 | 49 | 63 | 73 | 86 |  | 
219 | 184 | 254 | CCOC(=O)C1=C(C)NC(C)=C(C(=O)OCC)C1c1ccc([N+](=O)[O-])cc1 [diethyl 2,6-dimethyl-4-(4-nitrophenyl)-1,4-dihydropyridine-3,5-dicarboxylate] | 25 | 43 | 59 | 76 |  |  | 
 |  |  | CC(=O)S[C@@H]1CC2=CC(=O)CC[C@]2(C)[C@H]2CC[C@@]3(C)[C@@H](CC[C@@]34CCC(=O)O4)[C@H]12 [spironolactone] |  |  |  |  |  | 30 | 33
